# Test results taken from patent US5968838A, “Antiarrhythmic peptide from venom of spider Grammostola spatulata” (priority 1998, dated 1999).
# pKd: −log10 of the molar value. Where two headings read alike, the source gives them in different places. Ends that are not written are not given here.
# Legend:
# Assay type in all cases: cell-based, Rat
# L-type Ca^2+ channels = test: Depolarization (high K+) induced Ca2+ increase in GH3 cells, three consecutive depolarizations
# Method: After loading with Fura-2, the cover slip containing the GH3 cells was mounted in a custom made holder and placed in a quartz cuvette at an angle of 20 degrees to the excitation beam. The cells on the cover slip were exposed to various test solutions and the changes in calcium ion concentration were measured according to the following method. Fluorescence emission was collected from a group of about 10^5 cells located in the excitation path. Excitation beams at 340 nm (Ex340nm) and 380 nm (Ex380 nm) were used and the fluorescence intensities at 510 nm (Em5 10 nm) were monitored. […] Fluorescence emission data was collected for times up to 600 to 1200 seconds depending on the solution added to the cells. […]
# [1] = tested on: stretch activated channel; test: Fura-2 fluorescence ratio measurement of stretch activated channel activity: hypotonic cell swelling induced calcium increase (HICI) in GH3 cells
# Method: (§1) Rat pituitary cell line GH3 was provided by Dr. S. Simasko, Department of VCAPP, Washington State University, Pullman, Wash., 99164 and the American Type Culture Collection, Rockville, Md. The cells were cultured in standard medium containing 82.5% Ham's F-10 nutrients (Gibco, Gaithersburg, Md.), 15 % heat inhibited horse serum (Gibco) and 2.5% fetal bovine serum (Gibco) at 37C in 10% CO2. Cells were fed twice per week and subcultured once per week. For Fura-2 fluorescence measurements, cells were plated on poly-L-lysine coated glass cover slips at 95% confluency, cultured under normal conditions and used between 3 to 6 days after plating.
# Ca^2+ was measured on an SLM AB-2 fluorescence spectrometer (SLM Instruments, Rochester, N.Y.). Cells plated on poly-L-lysine coated glass cover slips were loaded with Fura-2 in a loading solution containing 2 micromolar Fura-2/AM (disclosed in Grynkiewicz, G. et al., (1985) Journal of Biological Chemistry 260: 3440-3450) according to the following procedure. Cells were washed twice in phosphate buffered saline (PBS) solution. Cells were then incubated in the loading solution for 30 minutes at 25C. The cells were rinsed twice with PBS and incubated in the culture medium for 30 minutes at 25C. Experiments were performed within 1 hour after loading. […]
# After loading, the plated cells were exposed to various hypotonic and isotonic solutions and test solutions containing spider venom. Changes in the calcium ion concentration were measured according to the following method.
# After loading with Fura-2, the cover slip containing the GH3 cells was mounted in a custom made holder and placed in a quartz cuvette at an angle of 20 degrees to the excitation beam. The cells on the cover slip were exposed to various test solutions and the changes in calcium ion concentration were measured according to the following method. Fluorescence emission was collected from a group of about 10^5 cells located in the excitation path. Excitation beams at 340 nm (Ex340nm) and 380 nm (Ex380 nm) were used and the fluorescence intensities at 510 nm (Em5 10 nm) were monitored. […] Fluorescence emission data was collected for times up to 600 to 1200 seconds depending on the solution added to the cells.
# An increase in the Ca^2+ concentration caused an increase in the fluorescence at Em510 nm/Ex340nm and at the same time, a decrease at Em510/Ex380nm. The ratio of the two (R) was used to calculate the Ca^2+ concentration using the following formula: [formula] where kd is the equilibrium constant; Rmax is the ratio and Fb is the fluorescence intensity at Ex380nm when Fura-2 is saturated with Ca^2+, Rmin is the ratio and Ff is the fluorescence intensity at Ex380nm when Fura-2 is not bound by Ca^2+. […]
# GH3 cells = test: Cell Ca2+ of GH3 cells in isotonic saline (Fura-2); conditions: 10 μM peptide
# Method: as §1
# Ca^2+ was measured on an SLM AB-2 fluorescence spectrometer (SLM Instruments, Rochester, N.Y.). […]
# After loading with Fura-2, the cover slip containing the GH3 cells was mounted in a custom made holder and placed in a quartz cuvette at an angle of 20 degrees to the excitation beam. The cells on the cover slip were exposed to various test solutions and the changes in calcium ion concentration were measured according to the following method. Fluorescence emission was collected from a group of about 10^5 cells located in the excitation path. Excitation beams at 340 nm (Ex340nm) and 380 nm (Ex380 nm) were used and the fluorescence intensities at 510 nm (Em5 10 nm) were monitored. […]
compound,measurement,setting,value
COC(=O)C1=C(C)NC(C)=C(C(=O)OC)C1c1ccccc1[N+](=O)[O-] [nifedipine],"block of depolarization induced Ca2+ increase (comparators, stated by contrast)",L-type Ca^2+ channels,block
YCQKWMWTCDEERKCCEGLVCRLWCKKKIEW (cysteine pairing not given here) [α Mechanotoxin],association rate,[1]; block of HICI in GH3 cells,approximately 10^3 m^-1 s^-1
same,dissociation rate,[1]; block of HICI in GH3 cells,~0.01 s⁻¹
same,pKd,"[1]; block of HICI in GH3 cells, read-out: equilibrium constant",~5.00
same,block of hypotonic cell swelling induced calcium increase (HICI),"[1]; purified peptide, GH3 cells",reversibly blocks
same,effect on cell Ca2+ in isotonic saline,GH3 cells,decreases cell Ca^2+ to levels seen in the absence of extracellular Ca^2+
[Gd+3] [Gd^3+],"block of depolarization induced Ca2+ increase (comparators, stated by contrast)","L-type Ca^2+ channels; GH3 cells, concentration not given",block
